The results in this text go back to patent US9266838B2, “Substituted (E)-N′-(1-phenylethylidene)benzohydrazide analogs as histone demethylase inhibitors” (University of Utah Research Foundation, priority 2011, dated 2016).

Assay [1] addresses LSD1 (Homo sapiens, UniProt O60341). Put plainly: LSD1 histone demethylase assay (LSD1 Inhibitor Screening Assay Kit). Format: biochemical.
Method: Briefly, test compounds were diluted to 20× the desired test concentration in 100% DMSO and 2.5 μL of the diluted drug sample was added to a black 384-well plate. The LSD1 enzyme stock was diluted 17-fold with assay buffer and 40 μM of the diluted LSD1 enzyme was added to the appropriate wells.
(§1) IC50 values are determined using GraphPad Prism 5 software. The data were entered as an X-Y plot into the software as percent inhibition for each concentration of the drug. The concentration values of the drug were log transformed and the nonlinear regression was carried out using the “sigmoidal dose-response (variable slope)” option within the GraphPad software to model the data and calculate IC50 values.
The test system of assay [2] is T-47D cells. Put plainly: Cell viability assay (ATPlite), T-47D. In kind it is cell-based. The settings on record: Homo sapiens, T47D, 96 hours, read-out: Cell Growth, IC50. For orientation: ATP-based viability assays read luminescence as a measure of living cells.
Method: Cells were cultured according to the procedures provided. […] Cells were cultured at 37° C. and 5% CO2.
Cell viability was determined using ATPlite™ Luminescence Assay System (PerkinElmer Inc., Waltham, Mass.) using the various cell-lines described above and in Table 4. Briefly, cells were seeded in 96-well plates and then treated with different concentrations of inhibitor (0.1% final DMSO concentration). After 96-hours of incubation, ATPlite detection reagent was added directly to the culture well. Luminescence was read 5 minutes later on an Envision microplate reader.
as §1
For assay [3], the system named is heme oxygenase 1 (HMOX1). Put plainly: Expression array experiments (transcriptional changes). Format: cell-based. The settings on record: multiple cell lines; data not shown.

Broadly, the IC50 is the concentration at which inhibition is half-maximal. Compound `CNS(=O)(=O)c1cccc(C(=O)N/N=C(\C)c2cc(Cl)ccc2O)c1` [Compound 29, (E)-3-(2-(1-(5-chloro-2-hydroxyphenyl)ethylidene)hydrazinecarbonyl)-N-methylbenzenesulfonamide] yielded a half-inhibitory concentration (IC50) in assay [1] of 8.7 nM.

With `C/C(=N\NC(=O)c1cccc(S(=O)(=O)N2CCOCC2)c1)c1cccc(Cl)c1F` [Compound 13, (E)-N′-(1-(3-chloro-2-fluorophenyl)ethylidene)-3-(morpholinosulfonyl)benzohydrazide], the IC50 in assay [2] is more than 10000 nM.

Consider `C/C(=N\NC(=O)c1cccc(S(=O)(=O)N2CCOCC2)c1)c1cc(Cl)ccc1O` [Compound 12, (E)-N′-(1-(5-chloro-2-hydroxyphenyl)ethylidene)-3-(morpholinosulfonyl)benzohydrazide], for which the “transcriptional change of HMOX1” value in assay [3] was “one of the most consistently up-regulated genes”.

For `C/C(=N\NC(=O)c1cccc(S(=O)(=O)N2CCN(C)CC2)c1)c1cc(Cl)ccc1O` [Compound 35, (E)-N′-(1-(5-chloro-2-hydroxyphenyl)ethylidene)-3-((4-methylpiperazin-1-yl)sulfonyl)benzohydrazide], the 50% inhibitory concentration (IC50) in assay [1] is less than 10 nM.

For the compound `O=C(c1cccc(S(=O)(=O)N2CCOCC2)c1)n1ccc(-c2cc(Cl)ccc2O)n1` [Compound 38, (3-(5-chloro-2-hydroxyphenyl)-1H-pyrazol-1-yl)(3-(morpholinosulfonyl)phenyl)methanone], the IC50 in assay [1] was more than 3000 nM.

`C/C(=N\NC(=O)c1cccc(S(=O)(=O)N2CCC(C)CC2)c1)c1cc(Cl)ccc1O` [Compound 26, (E)-N′-(1-(5-chloro-2-hydroxyphenyl)ethylidene)-3-((4-methylpiperidin-1-yl)sulfonyl)benzohydrazide] gave a 50% inhibitory concentration (IC50) in assay [1] of 9.5 nM.
